# Results taken from article PMC4349585 (Journal of medicinal chemistry, 2015).
# System: PC-3 cells
# Experiment: Cofilin phosphorylation Western blot in PC-3 cells stimulated by HGF
# Format: cell-based
# Conditions: 50 nM
smiles,measurement,value
"Cc1c[nH]c2ncnc(-c3ccc(NC(=O)N(CCO)c4ccccc4)cc3)c12 [Compound 18b, 1-(2-Hydroxyethyl)-3-(4-(5-methyl-7H-pyrrolo[2,3-d]pyrimidin-4-yl)phenyl)-1-phenylurea]",inhibition of cofilin phosphorylation in PC-3 cells (Western blot),significant inhibition
